Patent US20080249153A1, “ANTHELMINTIC FORMULATIONS” (priority 2005, published 2008)
Where two headings read alike, the source gives them in different places.

Assays:
[1] = Solubility studies of benzimidazoles (triclabendazole, oxfendazole, albendazole, ricobendazole) in different organic solvents; assay type: physicochemical
Procedure: As a comparison trials were conducted to determine the solubility of various members of the benzimidazole family in different solvents.
But more importantly it was discovered that triclabendazole is extremely soluble in 2-pyrrolidone and PEG 400 with more than 500 mg of triclabendazole capable of being dissolved in a ml of these solvents. This is particularly advantageous as it allows for formulations of low volume to be formulated for delivery to cattle and other animals.

[2] = Solubility studies of triclabendazole in different alcohols; assay type: physicochemical
[3] = solvents such as benzyl alcohol, propylene glycol, NMP, 2-pyrollidone, PEG, glycerol formal and butyl dioxitol

## COC(=O)Nc1nc2ccc([S+]([O-])c3ccccc3)cc2[nH]1 (centres unmarked) [oxfendazole]
[1]
  Solubility (in words): either insoluble or so insignificantly soluble

## CCCSc1ccc2nc(NC(=O)OC)[nH]c2c1 [albendazole]
[1]; [3]
  Solubility (in words): either insoluble or so insignificantly soluble

## CSc1nc2cc(Cl)c(Oc3cccc(Cl)c3Cl)cc2[nH]1 [triclabendazole, 5-Chloro-6-(3,3-dichlorophenoxy)-2-methylthio-1H-benzimidazole]
[2]; solvent 1-butanol
  Amount dissolved: 117.5 mg/mL
  Quantity dissolved in solvent: 2 gm/15 ml
[2]; solvent 1-hexanol
  Amount dissolved: 117.5 mg/mL
  Quantity dissolved in solvent: 2 gm/15 ml
[2]; solvent Ethyl alcohol
  Amount dissolved: 88.88 mg/mL
  Quantity dissolved in solvent: 2 gm/20 ml
[2]; solvent Isopropyl alcohol
  Amount dissolved: 117.5 mg/mL
  Quantity dissolved in solvent: 2 gm/15 ml
[2]; solvent Methyl alcohol
  Amount dissolved: 88.88 mg/mL
  Quantity dissolved in solvent: 2 gm/20 ml
[1]
  Solubility (in words): more soluble generally
[1]; in 10 ml 2-pyrrolidone, flowable in nature
  Quantity dissolved in 10 ml solvent: 10.0 g (flowable
[1]; in 10 ml Benzyl Alcohol, max solubility
  Quantity dissolved in 10 ml solvent: 5.0 g (Max
[1]; in 10 ml DGBE (butyl dioxitol), max solubility
  Quantity dissolved in 10 ml solvent: 2.0 g (Max
[1]; in 10 ml Glyceryl Formal, max solubility
  Quantity dissolved in 10 ml solvent: 1 g (Max
[1]; in 10 ml NMP, max solubility
  Quantity dissolved in 10 ml solvent: 4.5 g (Max
[1]; in 10 ml PEG400, flowable in nature
  Quantity dissolved in 10 ml solvent: 10.0 g (flowable
[1]; in 10 ml Propylene Glycol, max solubility
  Quantity dissolved in 10 ml solvent: 1.5 g (Max
[1]; solvent Benzyl Alcohol, max solubility
  Amount dissolved: 357.14 mg/mL
[1]; solvent DGBE (butyl dioxitol), max solubility
  Amount dissolved: 166.66 mg/mL
[1]; solvent Glyceryl Formal, max solubility
  Amount dissolved: 90.91 mg/mL
[1]; solvent NMP (N-methyl pyrrolidone), max solubility
  Amount dissolved: 321.43 mg/mL
[1]; solvent Propylene Glycol, max solubility
  Amount dissolved: 136.36 mg/mL

## CCC[S+]([O-])c1ccc2[nH]c(NC(=O)OC)nc2c1 (centres unmarked) [ricobendazole]
[1]; [3]
  Solubility (in words): either insoluble or so insignificantly soluble
